The results in this text go back to US7655665B2, “Nitromethylene derivatives and their use” (East China University of Science and Technology, priority 2004, dated 2010).

One series has as its system Aphis craccivoral. The series is described as follows: Insecticidal activity against Aphis craccivoral by immersing (dipping aphids on bean sprout). The format is in vivo. The note with it: 500 ppm; immersing (dipped 5 seconds); counted after 24 hours; 23° C. Here is the method:
(§1) Test on the insecticidal activity of Compound Nos. 1-227
Aphis, which belongs to Homoptera and has a piercing-sucking mouthpart, is a common insect for agricultural plant. Aphis craccivoral was tested by the way of immersing.
Test method: exactly weighed various samples were independently added to N,N-dimethylformamide to form a 10 g/L stock solution. The mixture was diluted with 0.2 mL/L aqueous Triton X-100 solution to a concentration of 500 ug/mL. After stably sucking on bean sprout, the adult aphis without wings together with bean sprout was dipped into 500 ug/mL dilution, taken out after 5 seconds, and the excess dilution was sucked out with bibulous paper and the adult aphis without wings was incubated in clean vessel at a constant temperature of 23° C. Each concentration was repeated for 3 times and the control group contained 0.2 mL/L aqueous Triton X-100 solution. The number of killed aphis was counted after 24 hours to calculate the mortality.

In a further series the test system is Nilaparvata lugens. As to the kind of experiment: Insecticidal activity against Nilaparvata lugens (planthopper) by spraying. The format is in vivo. The note with it: 500 ppm; spraying 2 ml; counted after 24 hours. Here is the method:
as §1
Planthopper, which belongs to Homoptera and has a piercing-sucking mouthpart, is a common insect for agricultural plant. Nilaparvata lugens was tested by the way of spraying.
Test method: the test compound was exactly formulated into a solution having a certain concentration and clean water was used as a blank control. Each process was repeated for 3 tumblers (3 times). 2 ml of solution was sprayed uniformly to each tumbler by a mini manual sprayer. 10 Nilaparvata lugens were introduced to every sink 6 hours before spraying. Three series of experiments were conducted. The number of killed Nilaparvata lugens was counted after 24 hours to calculate the mortality.

As for `CC(C)OC1CCC([N+](=O)[O-])=C2N(CC3CCOC3)CCCN21` (stereo not shown) [Compound 105], the “mortality (%) (500 ppm) Aphis” value in the series on Aphis craccivoral is recorded as 10%. In addition, in the series with Nilaparvata lugens, the “mortality (%) (500 ppm) Nilaparvata lugens” value is reported as 98%.
With `CCCCOC1CCC([N+](=O)[O-])=C2N(CC3CCOC3)CCCN21` (stereo not shown) [Compound 107], in the series with Aphis craccivoral, the “mortality (%) (500 ppm) Aphis” value is recorded as 7%. Also, in the series on Nilaparvata lugens, the “mortality (%) (500 ppm) Nilaparvata lugens” value came out at 0%.
For `CC(C)COC1CCC([N+](=O)[O-])=C2N(CC3CCOC3)CCCN21` (stereo not shown) [Compound 108] the same measures were 1% and 9%.
On to `CCC(C)OC1CCC([N+](=O)[O-])=C2N(CC3CCOC3)CCCN21` (stereo not shown) [Compound 109], for which the “mortality (%) (500 ppm) Aphis” value with Aphis craccivoral is reported as 2%. Besides, the “mortality (%) (500 ppm) Nilaparvata lugens” value in the series on Nilaparvata lugens is 10%.
For `CC(C)(C)OC1CCC([N+](=O)[O-])=C2N(CC3CCOC3)CCCN21` (stereo not shown) [Compound 110] the same measures were 67% and 98%.
In the case of `O=[N+]([O-])C1=C2N(Cc3ccc(Cl)nc3)CCN2C(Oc2ccccc2)CC1` (stereo not shown) [Compound 112], in the series on Aphis craccivoral, the “mortality (%) (500 ppm) Aphis” value is recorded as 38%. In addition, the “mortality (%) (500 ppm) Nilaparvata lugens” value with Nilaparvata lugens is given as 75%.
For `CC(=O)OC1CCC([N+](=O)[O-])=C2N(Cc3ccc(Cl)nc3)CCN21` (stereo not shown) [Compound 113] the same measures were 45% and 77%.
For `CCC(=O)OC1CCC([N+](=O)[O-])=C2N(Cc3ccc(Cl)nc3)CCN21` (stereo not shown) [Compound 114] the same measures were 56% and 88%.
In the same order, the values of `O=C(OC1CCC([N+](=O)[O-])=C2N(Cc3ccc(Cl)nc3)CCN21)C(Cl)(Cl)Cl` (stereo not shown) [Compound 115] are 0% and 33%.
Consider `O=C(OC1CCC([N+](=O)[O-])=C2N(Cc3ccc(Cl)nc3)CCN21)C(F)(F)F` (stereo not shown) [Compound 116], for which, in the series with Aphis craccivoral, the “mortality (%) (500 ppm) Aphis” value is given as 2%. In the series with Nilaparvata lugens, the “mortality (%) (500 ppm) Nilaparvata lugens” value is listed as 45%.
For `CS(=O)(=O)OC1CCC([N+](=O)[O-])=C2N(Cc3ccc(Cl)nc3)CCN21` (stereo not shown) [Compound 117] the same measures were 19% and 65%.
In the same order, the values of `O=[N+]([O-])C1=C2N(Cc3ccc(Cl)nc3)CCN2C(OS(=O)(=O)C(F)(F)F)CC1` (stereo not shown) [Compound 118] are 81% and 100%.
As to `O=[N+]([O-])C1=C2N(Cc3ccc(Cl)nc3)CCN2C(OS(=O)(=O)c2ccccc2)CC1` (stereo not shown) [Compound 119], in the series with Aphis craccivoral, the “mortality (%) (500 ppm) Aphis” value was found to be 3%. Moreover, the “mortality (%) (500 ppm) Nilaparvata lugens” value in the series with Nilaparvata lugens was 23%.
As to `O=C(OC1CCC([N+](=O)[O-])=C2N(Cc3ccc(Cl)nc3)CCN21)c1cccnc1` (stereo not shown) [Compound 120], the “mortality (%) (500 ppm) Aphis” value with Aphis craccivoral is 1%. Besides, the “mortality (%) (500 ppm) Nilaparvata lugens” value with Nilaparvata lugens amounted to 5%.
For `O=C(OC1CCC([N+](=O)[O-])=C2N(Cc3ccc(Cl)nc3)CCN21)c1ccccn1` (stereo not shown) [Compound 121], the “mortality (%) (500 ppm) Aphis” value in the series with Aphis craccivoral is listed as 0%. In addition, in the series with Nilaparvata lugens, the “mortality (%) (500 ppm) Nilaparvata lugens” value came out at 8%.
Turning to `O=C(OC1CCC([N+](=O)[O-])=C2N(Cc3ccc(Cl)nc3)CCN21)c1ccccc1` (stereo not shown) [Compound 122], the “mortality (%) (500 ppm) Aphis” value in the series with Aphis craccivoral worked out at 56%. Besides, the “mortality (%) (500 ppm) Nilaparvata lugens” value in the series with Nilaparvata lugens worked out at 23%.
For the compound `O=C(OC1CCC([N+](=O)[O-])=C2N(Cc3ccc(Cl)nc3)CCN21)c1ccc(F)cc1` (stereo not shown) [Compound 123], in the series on Aphis craccivoral, the “mortality (%) (500 ppm) Aphis” value is reported as 56%. Moreover, in the series with Nilaparvata lugens, the “mortality (%) (500 ppm) Nilaparvata lugens” value was 100%.
For `O=C(OC1CCC([N+](=O)[O-])=C2N(Cc3ccc(Cl)nc3)CCN21)c1ccc(Cl)cc1` (stereo not shown) [Compound 124] the same measures were 22% and 0%.
On to `O=C(OC1CCC([N+](=O)[O-])=C2N(Cc3ccc(Cl)nc3)CCN21)c1cc(F)c(Cl)cc1Cl` (stereo not shown) [Compound 125], for which, in the series with Aphis craccivoral, the “mortality (%) (500 ppm) Aphis” value is reported as 67%. Besides, the “mortality (%) (500 ppm) Nilaparvata lugens” value in the series on Nilaparvata lugens is reported as 92%.
Turning to `O=C(OC1CCC([N+](=O)[O-])=C2N(Cc3ccc(Cl)nc3)CCN21)c1ccc(C(F)(F)F)cc1` (stereo not shown) [Compound 126], the “mortality (%) (500 ppm) Aphis” value with Aphis craccivoral was determined as 93%. In addition, in the series on Nilaparvata lugens, the “mortality (%) (500 ppm) Nilaparvata lugens” value turned out to be 100%.
For `O=C(OC1CCC([N+](=O)[O-])=C2N(Cc3ccc(Cl)nc3)CCN21)c1cc(F)c(F)cc1F` (stereo not shown) [Compound 127] the same measures were 45% and 78%.
For `O=C(OC1CCC([N+](=O)[O-])=C2N(Cc3ccc(Cl)nc3)CCN21)c1cc(F)c(F)c(F)c1F` (stereo not shown) [Compound 128], the “mortality (%) (500 ppm) Aphis” value in the series on Aphis craccivoral worked out at 0%. Besides, the “mortality (%) (500 ppm) Nilaparvata lugens” value in the series on Nilaparvata lugens turned out to be 21%.
As to `O=C(OC1CCC([N+](=O)[O-])=C2N(Cc3ccc(Cl)nc3)CCN21)c1ccccc1F` (stereo not shown) [Compound 129], in the series with Aphis craccivoral, the “mortality (%) (500 ppm) Aphis” value is 0%. Besides, the “mortality (%) (500 ppm) Nilaparvata lugens” value in the series on Nilaparvata lugens was determined as 34%.
In the same order, the values of `O=C(OC1CCC([N+](=O)[O-])=C2N(Cc3ccc(Cl)nc3)CCN21)c1cc(F)c(F)c([N+](=O)[O-])c1F` (stereo not shown) [Compound 130] are 23% and 67%.
Regarding `O=C(OC1CCC([N+](=O)[O-])=C2N(Cc3ccc(Cl)nc3)CCN21)c1ccc(Cl)c(Cl)c1` (stereo not shown) [Compound 131], in the series with Aphis craccivoral, the “mortality (%) (500 ppm) Aphis” value was found to be 3%. In the series on Nilaparvata lugens, the “mortality (%) (500 ppm) Nilaparvata lugens” value was found to be 0%.
For `CSC1CCC([N+](=O)[O-])=C2N(Cc3ccc(Cl)nc3)CCN21` (stereo not shown) [Compound 132] the same measures were 100% and 100%.
In the same order, the values of `CCSC1CCC([N+](=O)[O-])=C2N(Cc3ccc(Cl)nc3)CCN21` (stereo not shown) [Compound 133] are 100% and 100%.
Consider `O=[N+]([O-])C1=C2N(Cc3ccc(Cl)nc3)CCN2C(SCC(F)(F)F)CC1` (stereo not shown) [Compound 135], for which, in the series on Aphis craccivoral, the “mortality (%) (500 ppm) Aphis” value is given as 98%. In the series with Nilaparvata lugens, the “mortality (%) (500 ppm) Nilaparvata lugens” value was 100%.
`CCCSC1CCC([N+](=O)[O-])=C2N(Cc3ccc(Cl)nc3)CCN21` (stereo not shown) [Compound 136]: the “mortality (%) (500 ppm) Aphis” value with Aphis craccivoral amounted to 100%. Moreover, the “mortality (%) (500 ppm) Nilaparvata lugens” value in the series with Nilaparvata lugens was 100%.
For the compound `CC(C)SC1CCC([N+](=O)[O-])=C2N(Cc3ccc(Cl)nc3)CCN21` (stereo not shown) [Compound 137], the “mortality (%) (500 ppm) Aphis” value in the series on Aphis craccivoral is 89%. Also, in the series with Nilaparvata lugens, the “mortality (%) (500 ppm) Nilaparvata lugens” value is given as 100%.
For `O=[N+]([O-])C1=C2N(Cc3ccc(Cl)nc3)CCN2C(SC(C(F)(F)F)C(F)(F)F)CC1` (stereo not shown) [Compound 138], the “mortality (%) (500 ppm) Aphis” value in the series with Aphis craccivoral is 45%. The “mortality (%) (500 ppm) Nilaparvata lugens” value in the series on Nilaparvata lugens stood at 98%.
For the compound `CCCCSC1CCC([N+](=O)[O-])=C2N(Cc3ccc(Cl)nc3)CCN21` (stereo not shown) [Compound 139], the “mortality (%) (500 ppm) Aphis” value with Aphis craccivoral was 34%. Besides, the “mortality (%) (500 ppm) Nilaparvata lugens” value with Nilaparvata lugens came to 78%.
`CC(C)CSC1CCC([N+](=O)[O-])=C2N(Cc3ccc(Cl)nc3)CCN21` (stereo not shown) [Compound 140]: the “mortality (%) (500 ppm) Aphis” value in the series with Aphis craccivoral worked out at 67%. Further, the “mortality (%) (500 ppm) Nilaparvata lugens” value in the series with Nilaparvata lugens is 78%.
With `CCC(C)SC1CCC([N+](=O)[O-])=C2N(Cc3ccc(Cl)nc3)CCN21` (stereo not shown) [Compound 141], the “mortality (%) (500 ppm) Aphis” value with Aphis craccivoral is recorded as 56%. The “mortality (%) (500 ppm) Nilaparvata lugens” value with Nilaparvata lugens was 89%.
For `CC(C)(C)SC1CCC([N+](=O)[O-])=C2N(Cc3ccc(Cl)nc3)CCN21` (stereo not shown) [Compound 142] the same measures were 67% and 88%.
`CCCCCSC1CCC([N+](=O)[O-])=C2N(Cc3ccc(Cl)nc3)CCN21` (stereo not shown) [Compound 143]: in the series with Aphis craccivoral, the “mortality (%) (500 ppm) Aphis” value was determined as 23%. In addition, the “mortality (%) (500 ppm) Nilaparvata lugens” value with Nilaparvata lugens is reported as 34%.
For the compound `CCC(C)SC1CCC([N+](=O)[O-])=C2N(Cc3ccc(Cl)nc3)CCN21` (stereo not shown) [Compound 144], the “mortality (%) (500 ppm) Aphis” value in the series on Aphis craccivoral is on record as 12%. Further, the “mortality (%) (500 ppm) Nilaparvata lugens” value in the series with Nilaparvata lugens is recorded as 56%.
For `CC(C)CCSC1CCC([N+](=O)[O-])=C2N(Cc3ccc(Cl)nc3)CCN21` (stereo not shown) [Compound 145] the same measures were 67% and 78%.
In the same order, the values of `CCCC(C)SC1CCC([N+](=O)[O-])=C2N(Cc3ccc(Cl)nc3)CCN21` (stereo not shown) [Compound 146] are 35% and 97%.
As to `CC(C)(C)CSC1CCC([N+](=O)[O-])=C2N(Cc3ccc(Cl)nc3)CCN21` (stereo not shown) [Compound 147], the “mortality (%) (500 ppm) Aphis” value in the series on Aphis craccivoral is recorded as 56%. Further, in the series on Nilaparvata lugens, the “mortality (%) (500 ppm) Nilaparvata lugens” value is recorded as 99%.
For `COCCSC1CCC([N+](=O)[O-])=C2N(Cc3ccc(Cl)nc3)CCN21` (stereo not shown) [Compound 148] the same measures were 67% and 89%.
In the same order, the values of `CCOCCSC1CCC([N+](=O)[O-])=C2N(Cc3ccc(Cl)nc3)CCN21` (stereo not shown) [Compound 149] are 98% and 100%.
For `CC(=O)OC1CCC([N+](=O)[O-])=C2N(Cc3cnc(Cl)s3)CCN21` (stereo not shown) [Compound 152] the same measures were 3% and 0%.
Turning to `CCC(=O)OC1CCC([N+](=O)[O-])=C2N(Cc3cnc(Cl)s3)CCN21` (stereo not shown) [Compound 153], in the series on Aphis craccivoral, the “mortality (%) (500 ppm) Aphis” value stood at 29%. Also, the “mortality (%) (500 ppm) Nilaparvata lugens” value in the series on Nilaparvata lugens is 38%.
